Reference: ChEMBL document CHEMBL1158159, “Design, synthesis, and structure-affinity relationship studies in NK1 receptor ligands based on azole-fused quinolinecarboxamide moieties” (Bioorg Med Chem, 2008)

target: Substance-P receptor (Homo sapiens, UniProt P25103); assay: Displacement of [125I]BH-SP to human recombinant NK1 receptor in CHO cells; format: cell-based
Sequence (P25103 whole entry): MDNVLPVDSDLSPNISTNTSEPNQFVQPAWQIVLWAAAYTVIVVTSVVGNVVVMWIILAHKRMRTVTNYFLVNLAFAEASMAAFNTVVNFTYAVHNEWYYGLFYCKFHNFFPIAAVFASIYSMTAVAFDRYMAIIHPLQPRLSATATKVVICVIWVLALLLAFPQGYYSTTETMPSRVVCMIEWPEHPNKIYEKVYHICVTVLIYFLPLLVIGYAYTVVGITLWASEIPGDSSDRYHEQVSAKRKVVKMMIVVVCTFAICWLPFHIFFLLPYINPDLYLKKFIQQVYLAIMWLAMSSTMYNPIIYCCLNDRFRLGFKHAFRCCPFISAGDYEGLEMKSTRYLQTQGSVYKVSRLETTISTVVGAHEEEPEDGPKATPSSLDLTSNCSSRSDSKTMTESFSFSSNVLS

Row | IC50 | Structure (SMILES)
1 | 780 nM | COc1cc(CNC(=O)c2c(-c3ccccc3)c3ccccc3n3nnnc23)cc(OC)c1
2 | 2750 nM | COc1ccccc1CNC(=O)c1c(-c2ccccc2)c2ccccc2n2nnnc12
3 | 311 nM | O=C(NCc1cc(C(F)(F)F)cc(C(F)(F)F)c1)c1c(-c2ccccc2)c2ccccc2n2nnnc12
4 | 235 nM | O=C(NCc1cc(C(F)(F)F)cc(C(F)(F)F)c1)c1c(-c2ccc(F)cc2)c2ccccc2n2nnnc12
5 | 390 nM | O=C(NCc1cc(C(F)(F)F)cc(C(F)(F)F)c1)c1c(-c2ccccc2)c2ccccc2n2cccc12
6 | 9 nM | CN(Cc1cc(C(F)(F)F)cc(C(F)(F)F)c1)C(=O)c1c(-c2ccccc2)c2ccccc2n2cnnc12
7 | 1230 nM | O=C(NCc1cc(C(F)(F)F)cc(C(F)(F)F)c1)c1c(-c2ccccc2)c2ccccc2n2ccnc12
8 | 21 nM | CN(Cc1cc(C(F)(F)F)cc(C(F)(F)F)c1)C(=O)c1c(-c2ccc(F)cc2)c2ccccc2n2nnnc12
9 | 38 nM | CN(Cc1cc(C(F)(F)F)cc(C(F)(F)F)c1)C(=O)c1c(-c2ccccc2)c2ccccc2n2ccnc12
10 | 542 nM | O=C(NCc1cc(C(F)(F)F)cc(C(F)(F)F)c1)c1c(-c2ccccc2)c2ccccc2n2cnnc12
11 | 26 nM | CN(Cc1cc(C(F)(F)F)cc(C(F)(F)F)c1)C(=O)c1c(-c2ccccc2)c2ccccc2n2nnnc12
12 | 36 nM | CN(Cc1cc(C(F)(F)F)cc(C(F)(F)F)c1)C(=O)c1c(-c2ccccc2)c2ccccc2n2cccc12
13 | 401 nM | Cc1ccc(-c2c(C(=O)NCc3cc(C(F)(F)F)cc(C(F)(F)F)c3)c3nnnn3c3ccccc23)cc1
14 | 55 nM | Cc1ccc(-c2c(C(=O)N(C)Cc3cc(C(F)(F)F)cc(C(F)(F)F)c3)c3nnnn3c3ccccc23)cc1
15 | 4.3 nM | CN(Cc1cc(C(F)(F)F)cc(C(F)(F)F)c1)C(=O)c1c(-c2ccccc2)c2ccccc2n2cncc12
16 | 146 nM | O=C(NCc1cc(C(F)(F)F)cc(C(F)(F)F)c1)c1c(-c2ccccc2)c2ccccc2n2cncc12
